Results reported in ChEMBL document CHEMBL3860026, “Depsidones from Lichens as Natural Product Inhibitors of M-Phase Phosphoprotein 1, a Human Kinesin Required for Cytokinesis” (J Nat Prod, 2016).
In brackets after ≈: the same amount, converted by molar mass. Activity calls are given as the source filed them. No cut-off for these calls is given here.

Key:
[1] = Cytotoxicity against human K562 cells assessed as growth inhibition after 72 hrs by Alamar Blue assay; type: functional, cell-based; details: K562, 72 h
[2] = Solubility of the compound in phosphate buffered saline at pH 7.4 after 2 hrs by turbidimetric method; type: physicochemical
[3] = biological target: T1, Kinesin-like protein KIF20B (Homo sapiens, UniProt Q96Q89); details: 1 to 20 uM
T1 sequence (Q96Q89 whole entry, the tested form may be a part): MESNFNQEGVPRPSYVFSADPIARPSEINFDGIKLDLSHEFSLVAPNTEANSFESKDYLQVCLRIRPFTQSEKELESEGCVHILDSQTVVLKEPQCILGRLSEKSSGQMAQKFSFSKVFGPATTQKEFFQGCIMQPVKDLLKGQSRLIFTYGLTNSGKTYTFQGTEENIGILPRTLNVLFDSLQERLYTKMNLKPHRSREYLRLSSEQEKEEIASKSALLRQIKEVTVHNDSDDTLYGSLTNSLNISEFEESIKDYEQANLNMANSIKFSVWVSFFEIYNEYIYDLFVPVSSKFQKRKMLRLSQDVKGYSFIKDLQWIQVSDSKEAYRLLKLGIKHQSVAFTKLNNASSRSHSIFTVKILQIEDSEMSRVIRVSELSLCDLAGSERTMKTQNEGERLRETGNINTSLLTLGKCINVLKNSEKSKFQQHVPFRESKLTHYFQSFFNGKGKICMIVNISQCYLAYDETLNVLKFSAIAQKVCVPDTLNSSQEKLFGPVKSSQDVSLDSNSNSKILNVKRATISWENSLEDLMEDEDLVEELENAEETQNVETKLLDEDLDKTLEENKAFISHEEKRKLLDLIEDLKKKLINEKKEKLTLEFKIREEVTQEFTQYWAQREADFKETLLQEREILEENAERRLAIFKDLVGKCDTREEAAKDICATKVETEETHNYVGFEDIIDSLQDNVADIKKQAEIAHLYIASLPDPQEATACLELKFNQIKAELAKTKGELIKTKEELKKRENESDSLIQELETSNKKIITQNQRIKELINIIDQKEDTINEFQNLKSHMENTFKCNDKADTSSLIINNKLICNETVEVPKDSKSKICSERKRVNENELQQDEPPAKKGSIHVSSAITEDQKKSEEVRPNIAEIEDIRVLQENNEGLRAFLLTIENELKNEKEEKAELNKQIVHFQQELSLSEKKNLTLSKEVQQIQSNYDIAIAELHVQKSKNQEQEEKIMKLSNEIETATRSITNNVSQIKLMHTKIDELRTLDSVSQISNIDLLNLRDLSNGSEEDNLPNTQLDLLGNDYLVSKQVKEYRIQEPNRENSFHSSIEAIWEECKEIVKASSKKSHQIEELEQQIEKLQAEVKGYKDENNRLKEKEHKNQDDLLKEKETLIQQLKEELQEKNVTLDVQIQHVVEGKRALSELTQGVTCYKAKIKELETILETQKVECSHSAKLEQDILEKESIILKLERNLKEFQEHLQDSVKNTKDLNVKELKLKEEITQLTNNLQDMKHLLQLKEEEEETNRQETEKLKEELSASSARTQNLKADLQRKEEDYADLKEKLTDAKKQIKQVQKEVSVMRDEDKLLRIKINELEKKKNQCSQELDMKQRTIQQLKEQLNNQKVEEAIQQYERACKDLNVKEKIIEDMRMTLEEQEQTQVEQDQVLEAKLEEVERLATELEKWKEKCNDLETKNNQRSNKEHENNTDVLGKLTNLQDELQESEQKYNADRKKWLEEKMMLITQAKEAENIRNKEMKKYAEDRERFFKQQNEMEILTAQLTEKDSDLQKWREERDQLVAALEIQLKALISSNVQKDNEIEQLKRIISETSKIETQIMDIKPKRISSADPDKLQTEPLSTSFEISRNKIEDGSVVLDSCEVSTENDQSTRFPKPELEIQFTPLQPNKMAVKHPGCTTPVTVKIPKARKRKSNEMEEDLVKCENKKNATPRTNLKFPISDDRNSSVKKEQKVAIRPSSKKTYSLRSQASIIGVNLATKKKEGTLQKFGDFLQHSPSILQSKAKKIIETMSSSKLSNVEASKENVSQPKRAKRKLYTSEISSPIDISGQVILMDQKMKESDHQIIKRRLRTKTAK

[4] = biological target: T1, Kinesin-like protein KIF20B; assay: Inhibition of microtubule-stimulated ATPase activity of N-terminal His6-tagged/SUMO-fused human MPP1 motor domain (2 to 477 residues) expressed in Escherichia coli BL21 CodonPlus by pyruvate kinase/lactate dehydrogenase-linked assay
[5] = biological target: T1, Kinesin-like protein KIF20B; assay: Inhibition of basal ATPase activity of N-terminal His6-tagged/SUMO-fused human MPP1 motor domain (57 to 491 residues) expressed in Escherichia coli BL21 CodonPlus by pyruvate kinase/lactate dehydrogenase-linked assay
[6] = biological target: T2, Kinesin-like protein KIF23 (Homo sapiens) (UniProt Q02241); assay: Inhibition of microtubule-stimulated ATPase activity of human MKLP-1 at 200 uM by pyruvate kinase/lactate dehydrogenase-linked assay
T2 sequence (whole entry): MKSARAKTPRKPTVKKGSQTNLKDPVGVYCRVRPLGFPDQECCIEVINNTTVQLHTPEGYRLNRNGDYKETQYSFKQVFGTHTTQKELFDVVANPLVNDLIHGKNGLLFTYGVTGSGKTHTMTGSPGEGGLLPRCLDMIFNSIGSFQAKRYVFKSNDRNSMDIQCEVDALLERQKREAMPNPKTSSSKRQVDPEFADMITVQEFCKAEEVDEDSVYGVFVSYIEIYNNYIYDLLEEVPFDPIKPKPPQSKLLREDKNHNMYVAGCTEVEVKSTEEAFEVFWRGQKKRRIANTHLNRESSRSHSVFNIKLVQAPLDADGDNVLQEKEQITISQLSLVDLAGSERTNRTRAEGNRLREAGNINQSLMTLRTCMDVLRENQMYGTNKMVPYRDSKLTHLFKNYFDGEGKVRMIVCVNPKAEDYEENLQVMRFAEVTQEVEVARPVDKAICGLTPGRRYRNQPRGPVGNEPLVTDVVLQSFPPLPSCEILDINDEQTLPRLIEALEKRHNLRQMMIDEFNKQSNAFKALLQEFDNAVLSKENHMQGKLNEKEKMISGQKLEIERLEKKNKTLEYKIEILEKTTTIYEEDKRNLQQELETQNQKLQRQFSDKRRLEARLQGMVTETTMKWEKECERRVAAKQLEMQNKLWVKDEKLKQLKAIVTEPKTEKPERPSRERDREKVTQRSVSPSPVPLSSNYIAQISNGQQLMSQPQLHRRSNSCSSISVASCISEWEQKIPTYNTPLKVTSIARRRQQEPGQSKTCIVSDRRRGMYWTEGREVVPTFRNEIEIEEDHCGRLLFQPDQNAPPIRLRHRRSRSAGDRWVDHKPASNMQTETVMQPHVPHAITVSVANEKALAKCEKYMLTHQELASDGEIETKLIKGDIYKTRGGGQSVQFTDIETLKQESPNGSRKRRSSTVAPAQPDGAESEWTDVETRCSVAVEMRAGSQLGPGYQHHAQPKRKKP

[7] = Cytotoxicity against human UM-UC-3 cells assessed as growth inhibition after 72 hrs by Alamar Blue assay; type: functional, cell-based; details: UMUC3, 72 h
[8] = biological target: T3, Kinesin-like protein KIF3B (Homo sapiens) (UniProt O15066); assay: Inhibition of microtubule-stimulated ATPase activity of human Kif3B at 200 uM by pyruvate kinase/lactate dehydrogenase-linked assay
T3 sequence (whole entry): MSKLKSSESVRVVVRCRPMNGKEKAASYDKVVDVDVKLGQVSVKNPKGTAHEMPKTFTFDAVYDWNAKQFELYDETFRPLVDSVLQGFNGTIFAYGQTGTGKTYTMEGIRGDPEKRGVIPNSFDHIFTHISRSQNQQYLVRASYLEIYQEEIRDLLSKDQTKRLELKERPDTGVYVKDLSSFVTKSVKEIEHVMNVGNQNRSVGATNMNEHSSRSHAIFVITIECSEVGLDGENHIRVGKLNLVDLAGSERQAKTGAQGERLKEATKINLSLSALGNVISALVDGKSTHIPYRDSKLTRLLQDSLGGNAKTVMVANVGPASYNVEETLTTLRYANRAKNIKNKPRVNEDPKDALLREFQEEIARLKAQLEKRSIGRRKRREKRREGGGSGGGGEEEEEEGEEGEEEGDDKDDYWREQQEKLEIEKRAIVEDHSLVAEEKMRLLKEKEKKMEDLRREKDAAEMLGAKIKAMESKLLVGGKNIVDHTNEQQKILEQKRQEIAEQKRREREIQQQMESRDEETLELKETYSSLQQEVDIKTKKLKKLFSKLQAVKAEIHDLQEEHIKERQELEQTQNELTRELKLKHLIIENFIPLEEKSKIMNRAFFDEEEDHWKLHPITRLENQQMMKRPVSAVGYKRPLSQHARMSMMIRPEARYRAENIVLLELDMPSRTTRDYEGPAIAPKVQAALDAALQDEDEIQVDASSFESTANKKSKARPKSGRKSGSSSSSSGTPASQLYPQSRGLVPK

[9] = Passive permeability of the compound assessed as compound recovery at 10 uM after 5 hrs by PAMPA; type: ADME; details: read-out: Drug recovery
[10] = Solubility of the compound in phosphate buffered saline at pH 2 after 2 hrs by turbidimetric method; type: physicochemical
[11] = biological target: T1, Kinesin-like protein KIF20B; assay: Inhibition of basal ATPase activity of N-terminal His6-tagged/SUMO-fused human MPP1 motor domain (57 to 491 residues) expressed in Escherichia coli BL21 CodonPlus in presence of 0.1% Tween-20 by pyruvate kinase/lactate dehydrogenase-linked assay
[12] = Intrinsic clearance in human liver microsomes assessed per mg of protein at 3 uM after 5 to 60 mins by LC-MS/MS method; type: ADME; details: read-out: CLH

With `CCCCCC(=O)Cc1cc(O)cc2c1C(=O)Oc1cc(O)c(C(=O)O)c(CCCCC)c1O2` [PHYSODIC ACID] the EC50 [1] was 32.6 µM, the solubility kinetic at 2 h [2] was over 100 µM and the inhibition [3] was “Active”. The IC50 [4] was 4.6 µM, the Imax [4] was 95% and the IC50 [5] was 9.9 µM. For the same compound, the Imax [5] was 85%, the inhibition [6] was 40% and the EC50 [7] was 31.8 µM. For the same compound, the inhibition [8] was 40%, the recovery at 5 h, 10 µM [9] was 77% and the solubility kinetic at 2 h [10] was 3.75 µM (≈ 1.76 µg/mL). For the same compound, the inhibition [11] was “Active” and the microsomal CLint at 3 µM [12] was 310 µL/min/mg.
